The values that follow come from PubChem BioAssay (NCI).

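Compound exposure: 48 hours, 5 concentrations, 96-well plates. GI50 marks 50% less growth. TGI: total growth inhibition.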

Among the test systems are HT29 colon; MCF7 breast; TK-10 renal; IGROV1 ovarian; OVCAR-5 ovarian; DU-145 prostate; SK-MEL-28 melanoma; A549 NSCLC; CCRF-CEM leukemia; HOP-92 NSCLC.
What all share (experiment): inhibition of tumour cell growth, NCI panel, 48 h

`O=c1oc2c(cc1-c1ccccc1)C(O)Oc1ccccc1-2` (stereo not drawn): the GI50 is 3.21 µM in the assay on HT29 colon; 4.29 µM in the assay on MCF7 breast; 6.46 µM in the assay with TK-10 renal; 10.4 µM with IGROV1 ovarian; 31.3 µM in the assay on OVCAR-5 ovarian; 18.9 µM in the assay on DU-145 prostate. Also, the results for the GI50 in the assay on SK-MEL-28 melanoma and in the assay with A549 NSCLC were 3.1 µM and 7.84 µM, respectively. For the same compound, the TGI in the assay with HT29 colon was over 100 µM; in the assay with MCF7 breast it was over 100 µM; with TK-10 renal, over 100 µM; in the assay with IGROV1 ovarian it was 91.9 µM; with OVCAR-5 ovarian it was over 100 µM; in the assay on DU-145 prostate, over 100 µM. Further, the TGI in the assay with SK-MEL-28 melanoma is 25 µM; in the assay with A549 NSCLC, 95.8 µM.

Turning to `COc1ccc(C(=O)C/C(=N/NC(N)=S)C(=O)Nc2ccccc2)cc1`, the TGI with HT29 colon, in the assay on TK-10 renal, in the assay on IGROV1 ovarian, with OVCAR-5 ovarian, with CCRF-CEM leukemia and with SK-MEL-28 melanoma was over 100 µM throughout. In the assay with A549 NSCLC, the TGI is over 100 µM.

`Cc1cccc(C)c1NC(=O)CCCC(=O)C(C#N)c1ccc(Cl)cc1` (stereo not drawn): the TGI in the assay with HT29 colon, in the assay with TK-10 renal, with IGROV1 ovarian, in the assay on HOP-92 NSCLC, in the assay with OVCAR-5 ovarian and with CCRF-CEM leukemia was over 100 µM throughout. The TGI in the assay on SK-MEL-28 melanoma and in the assay with A549 NSCLC was over 100 µM each time.

For the compound `COc1cc2c(c(OC)c1OC)C(=O)c1c-2n(CCCN=[N+]=[N-])c(=O)c2cc([N+](=O)[O-])ccc12`, the GI50 with HT29 colon was over 100 µM; with MCF7 breast, 27.2 µM; in the assay on TK-10 renal, over 100 µM; in the assay on IGROV1 ovarian it was 24.3 µM; in the assay on OVCAR-5 ovarian, over 100 µM; in the assay on DU-145 prostate, over 100 µM. The GI50 in the assay with SK-MEL-28 melanoma and with A549 NSCLC was over 100 µM in each case. Besides, the TGI in the assay with HT29 colon, in the assay on MCF7 breast, in the assay on TK-10 renal, in the assay with IGROV1 ovarian, in the assay with OVCAR-5 ovarian and in the assay on DU-145 prostate was over 100 µM each time. In addition, the TGI in the assay with SK-MEL-28 melanoma and in the assay with A549 NSCLC was over 100 µM in each case.

In the case of `C[CH2][Ge]([CH2]C)([CH2]C)[O]C(=O)C([O][Ge]([CH2]C)([CH2]C)[CH2]C)c1ccccc1` (stereo not drawn), the GI50 was 16.4 µM in the assay with HT29 colon; 47.6 µM with TK-10 renal; 29.1 µM with IGROV1 ovarian; 4.32 µM in the assay with HOP-92 NSCLC; 16.3 µM with OVCAR-5 ovarian; 20.6 µM in the assay with CCRF-CEM leukemia. For the same compound, the GI50 is 24.6 µM with SK-MEL-28 melanoma and 12.7 µM with A549 NSCLC. For the same compound, the TGI with HT29 colon is 46.4 µM; with TK-10 renal, over 100 µM; in the assay with IGROV1 ovarian, over 100 µM; in the assay on HOP-92 NSCLC it was 45.9 µM; with OVCAR-5 ovarian, 74.1 µM; with CCRF-CEM leukemia, over 100 µM. Moreover, the TGI in the assay with SK-MEL-28 melanoma was over 100 µM; with A549 NSCLC it was 56.4 µM.

On to `O=C1[C@@H]2C(c3ccncc3)=NO[C@@H]2C(=O)N1c1ccc(Cc2ccc(N3C(=O)[C@H]4C(c5ccncc5)=NO[C@H]4C3=O)cc2)cc1`, for which the TGI with HT29 colon, in the assay on TK-10 renal, with IGROV1 ovarian, in the assay with HOP-92 NSCLC, in the assay with OVCAR-5 ovarian and in the assay with CCRF-CEM leukemia was over 100 µM throughout. Moreover, the TGI in the assay with SK-MEL-28 melanoma and in the assay with A549 NSCLC was over 100 µM throughout.

With `CN(C)CCC(=O)N1CCc2c([nH]c3ccccc23)C1c1cccnc1` (stereo not drawn), the TGI in the assay on HT29 colon, in the assay on TK-10 renal, with IGROV1 ovarian, with HOP-92 NSCLC, in the assay with OVCAR-5 ovarian and with CCRF-CEM leukemia was over 100 µM each time. For the same compound, the TGI in the assay on SK-MEL-28 melanoma and in the assay on A549 NSCLC was over 100 µM in each case.

Turning to `O=[N+]([O-])c1ccc2nc3ccscc-3c2c1`, the TGI is over 100 µM with HT29 colon; over 100 µM in the assay with TK-10 renal; over 100 µM in the assay with IGROV1 ovarian; 25.7 µM with HOP-92 NSCLC; over 100 µM in the assay with OVCAR-5 ovarian; over 100 µM in the assay with CCRF-CEM leukemia. For the same compound, the figures for the TGI with SK-MEL-28 melanoma and in the assay with A549 NSCLC were over 100 µM and 89.9 µM, respectively.

Take `NCCn1cnc2nc(NC(=O)c3ccccc3)[nH]c(=O)c21`: the TGI with HT29 colon, with TK-10 renal, with IGROV1 ovarian, in the assay with HOP-92 NSCLC, in the assay with OVCAR-5 ovarian and in the assay on SK-MEL-28 melanoma was over 100 µM throughout. Besides, the TGI in the assay on A549 NSCLC is over 100 µM.

Regarding `CCCCCCCC(=O)NS(=O)(=O)c1ccccc1`, the TGI in the assay on HT29 colon, in the assay on TK-10 renal, in the assay with IGROV1 ovarian, in the assay on DU-145 prostate, in the assay with CCRF-CEM leukemia and in the assay with SK-MEL-28 melanoma was over 100 µM throughout. Also, in the assay on A549 NSCLC, the TGI is over 100 µM.

Consider `COc1ccc(/C(=C\c2cc(OC)c(OC)c(OC)c2)C(=O)O)cc1`, for which the TGI in the assay with HT29 colon, in the assay on TK-10 renal, with IGROV1 ovarian, with HOP-92 NSCLC, in the assay on CCRF-CEM leukemia and in the assay on SK-MEL-28 melanoma was over 100 µM in each case. Further, the TGI in the assay on A549 NSCLC is over 100 µM.

`Cc1nnc2n1N=C(c1ccc(-c3ccc([N+](=O)[O-])cc3)o1)CS2`: the TGI in the assay with TK-10 renal, in the assay on IGROV1 ovarian, in the assay with HOP-92 NSCLC, in the assay on OVCAR-5 ovarian, with SK-MEL-28 melanoma and in the assay with A549 NSCLC was over 100 µM in each case.

Consider `C=C[Si](C)(C)COC(=O)/C(C#N)=C/C=C/c1ccccc1`, for which the TGI in the assay on HT29 colon, in the assay with IGROV1 ovarian, with HOP-92 NSCLC, in the assay with OVCAR-5 ovarian, in the assay on CCRF-CEM leukemia and in the assay on SK-MEL-28 melanoma was over 100 µM each time. The compound further had a TGI in the assay on A549 NSCLC of over 100 µM.

As for `CCOC(=O)C1=C(c2ccccc2)NC(c2ccccc2)=C(C(=O)OCC)c2c1c(=O)cc[nH]c2=O`, the TGI in the assay with HT29 colon, in the assay with TK-10 renal, in the assay on IGROV1 ovarian, in the assay with HOP-92 NSCLC, in the assay with OVCAR-5 ovarian and in the assay with SK-MEL-28 melanoma was over 100 µM in each case. The compound further gave a TGI in the assay on A549 NSCLC of over 100 µM.

Turning to `CCOC(=O)C1=C(C)N(NC(=O)OC)C2(N)N(NC(=O)OC)C(C)=C(C(=O)OCC)C12C#N` (stereo not drawn), the TGI in the assay with HT29 colon, in the assay with IGROV1 ovarian, in the assay on OVCAR-5 ovarian, in the assay on SK-MEL-28 melanoma and in the assay on A549 NSCLC was over 100 µM each time.
